Publication PMC9944328 (Nature Communications, 2023)

Tests used:
[1] = tested on: SSTR2 mutants; assay: SSTR2 internalization by ELISA, HEK293, 30 min 37 °C (mutants); format: cell-based, human; conditions: I284ECL3A, K291A, N276A, F294A, Bystander BRET or confocal
Experimental: HEK293 cells were seeded into 96-well microplates at a density of 4 × 10^4 cells/well and cultured for 24 h at 37 °C with 5% CO2 and were transfected using the same procedure as the cAMP accumulation assay. The plates were washed with washing buffer (PBS) the day after transfection, and were fixed with 4% formalin at room temperature for 30 min. Cells were washed with washing buffer and blocked with PBS supplemented with 5% BSA for 1 h at room temperature. After that, cells were incubated with anti-Flag antibody (1:1000 diluted with PBS containing 5% BSA, Proteintech: 66008-4-Ig) for 1 h at room temperature. After 1 h incubation, cells were washed with washing buffer and incubating with HRP-conjugated secondary antibody for 2 h at room temperature. After incubating and washing, 50 μl of chromogenic solution was added to each well, and reacted at room temperature for 10 min, and then 0.5 M HCl were added to stop the reaction.
All data presented are means at least three independent experiments.

[2] = biological target: SSTR2 mutants (Homo sapiens, UniProt P30874, F265A); assay: Bystander BRET endosomal trafficking (β-arrestin 1-Nluc, FYVE-mVenus), HEK293 (SSTR2 mutants); conditions: HEK293;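 also: Read-out is the BRET ratio between Nluc-fused β-arrestin 1 and the early endosome marker FYVE-mVenus, measured after ligand addition with coelenterazine h as substrate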;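 as to Bottom: percent of maximal wild-type response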;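 as to Span: percent of maximal wild-type response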;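 as to Top: percent of maximal wild-type response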
Chain of SSTR2 mutants (Homo sapiens, UniProt P30874, F265A) (P30874 whole entry F265A, the tested form may be a part): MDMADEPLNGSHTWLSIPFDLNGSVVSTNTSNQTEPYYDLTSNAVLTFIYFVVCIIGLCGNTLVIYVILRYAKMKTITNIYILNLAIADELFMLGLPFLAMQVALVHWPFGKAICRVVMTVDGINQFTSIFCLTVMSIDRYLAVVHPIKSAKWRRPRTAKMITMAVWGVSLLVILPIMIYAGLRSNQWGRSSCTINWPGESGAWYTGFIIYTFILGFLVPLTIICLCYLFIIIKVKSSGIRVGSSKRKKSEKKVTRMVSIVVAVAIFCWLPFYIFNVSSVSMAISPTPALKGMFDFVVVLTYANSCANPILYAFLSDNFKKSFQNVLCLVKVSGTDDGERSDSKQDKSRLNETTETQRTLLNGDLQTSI

[3] = biological target: SSTR2 mutants (Homo sapiens, UniProt P30874, I130A); assay: as above; conditions: HEK293
Chain of SSTR2 mutants (Homo sapiens, UniProt P30874, I130A) (P30874 whole entry I130A): as the sequence (P30874 whole entry F265A, the tested form may be a part) above, with I130A, A265F counted along it

[4] = biological target: SSTR2 mutants (Homo sapiens, UniProt P30874, K291A); assay: as above; conditions: for Bottom: best-fit
Chain of SSTR2 mutants (Homo sapiens, UniProt P30874, K291A) (P30874 whole entry K291A): as the sequence (P30874 whole entry F265A, the tested form may be a part) above, with A265F, K291A counted along it

[5] = biological target: SSTR2 mutants (Homo sapiens, UniProt P30874, P220A); assay: as above; conditions: for Bottom: Best-fit values
Chain of SSTR2 mutants (Homo sapiens, UniProt P30874, P220A) (P30874 whole entry P220A): as the sequence (P30874 whole entry F265A, the tested form may be a part) above, with P220A, A265F counted along it

[6] = biological target: SSTR2 mutants (Homo sapiens, UniProt P30874, R140A); assay: as above; conditions: Best-fit values
Chain of SSTR2 mutants (Homo sapiens, UniProt P30874, R140A) (P30874 whole entry R140A): as the sequence (P30874 whole entry F265A, the tested form may be a part) above, with R140A, A265F counted along it

[7] = biological target: SSTR2 mutants (Homo sapiens, UniProt P30874, W269A); assay: as above; conditions: for Bottom: Best-fit values
Chain of SSTR2 mutants (Homo sapiens, UniProt P30874, W269A) (P30874 whole entry W269A): as the sequence (P30874 whole entry F265A, the tested form may be a part) above, with A265F, W269A counted along it

[8] = biological target: SSTR2 mutants (Homo sapiens, UniProt P30874, Y312A); assay: as above; conditions: Best-fit values
Chain of SSTR2 mutants (Homo sapiens, UniProt P30874, Y312A) (P30874 whole entry Y312A): as the sequence (P30874 whole entry F265A, the tested form may be a part) above, with A265F, Y312A counted along it

[9] = tested on: SSTR2 mutants; assay: as above

In the case of `C[C@@H](O)[C@@H]1NC(=O)[C@H](CCCCN)NC(=O)[C@@H](Cc2c[nH]c3ccccc23)NC(=O)[C@H](Cc2ccccc2)NC(=O)[C@@H](NC(=O)[C@H](N)Cc2ccccc2)CSSC[C@@H](C(=O)N[C@H](CO)[C@@H](C)O)NC1=O` [octreotide], the Internalization of mutants [1] is reported as “diminished internalization”, the Emax [2] is reported as 56.1 ± 4.14% and the Emax [3] is reported as 68.2 ± 4.05%. It also gave an Emax ([4]; HEK293) of 68 ± 8.22%, a Bottom ([4]; K291A-1, run 1) of -10.2 and a Bottom ([4]; K291A-2, run 2) of 2.053. For the same compound, the Bottom ([5]; P220A-1) was -11.09, the Bottom ([5]; P220A-2) was 6.493 and the Emax ([5]; HEK293) was 20.3 ± 8.01%. For the same compound, the Bottom ([6]; R140A-1) was 0.00472, the Bottom ([6]; R140A-2) was -1.087 and the Bottom ([7]; W269A-1) was -0.7468. For the same compound, the Bottom ([7]; W269A-2) was -3.268, the Emax ([7]; HEK293) was 14.5 ± 3.19% and the Bottom ([8]; Y312A-1) was 0.5637. For the same compound, the Bottom ([8]; Y312A-2) was -0.6682, the LogEC50 ([9]; Best-fit values, I284A-1) was -6.559 and the Top ([9]; Best-fit values, I284A-1) was 94.85. It also gave a LogEC50 ([9]; Best-fit values, I284A-2) of -7.171, a Top ([9]; Best-fit values, I284A-2) of 92.19 and a LogEC50 ([9]; Best-fit values, P220A-1) of -6.023. For the same compound, the Span ([9]; Best-fit values, P220A-1) was 31.36, the Top ([9]; Best-fit values, P220A-1) was 20.27 and the LogEC50 ([9]; Best-fit values, P220A-2) was -7.589. The Span ([9]; Best-fit values, P220A-2) was 32.52, the Top ([9]; Best-fit values, P220A-2) was 39.01 and the LogEC50 ([9]; Best-fit values, R140A-1) was -8.238. For the same compound, the Span ([9]; Best-fit values, R140A-1) was 48.38, the Top ([9]; Best-fit values, R140A-1) was 48.39 and the LogEC50 ([9]; Best-fit values, R140A-2) was -8.282. It also gave a Span ([9]; Best-fit values, R140A-2) of 47.34, a Top ([9]; Best-fit values, R140A-2) of 46.25 and an EC50 ([9]; Best-fit values, W269A-1) of 0.642 nM. It also gave a LogEC50 ([9]; Best-fit values, W269A-1) of -9.192, a Span ([9]; Best-fit values, W269A-1) of 18.76 and a Top ([9]; Best-fit values, W269A-1) of 18.02. The EC50 ([9]; Best-fit values, W269A-2) was 0.132 nM, the LogEC50 ([9]; Best-fit values, W269A-2) was -9.88 and the Span ([9]; Best-fit values, W269A-2) was 17.57. For the same compound, the Top ([9]; Best-fit values, W269A-2) was 14.3, the EC50 ([9]; Best-fit values, Y312A-1) was 10.2 nM and the LogEC50 ([9]; Best-fit values, Y312A-1) was -7.991. It also gave a Span ([9]; Best-fit values, Y312A-1) of 45.08, a Top ([9]; Best-fit values, Y312A-1) of 45.64 and an EC50 ([9]; Best-fit values, Y312A-2) of 10.3 nM. For the same compound, the LogEC50 ([9]; Best-fit values, Y312A-2) was -7.988, the Span ([9]; Best-fit values, Y312A-2) was 40.73 and the Top ([9]; Best-fit values, Y312A-2) was 40.06. The “Internalization of microswitch mutants” value ([9]; alanine substitution of microswitch residues) was “reduced receptor internalization”, the EC50 ([9]; best-fit, I284A-1, run 1) was 276 nM and the Span ([9]; best-fit, I284A-1, run 1) was 93.85. The EC50 ([9]; best-fit, I284A-2, run 2) was 67.5 nM, the Span ([9]; best-fit, I284A-2, run 2) was 82.28 and the EC50 ([9]; best-fit, K291A-1, run 1) was 1610 nM. The LogEC50 ([9]; best-fit, K291A-1, run 1) was -5.793, the Span ([9]; best-fit, K291A-1, run 1) was 78.24 and the Top ([9]; best-fit, K291A-1, run 1) was 68.05. It also gave an EC50 ([9]; best-fit, K291A-2, run 2) of 615 nM, a LogEC50 ([9]; best-fit, K291A-2, run 2) of -6.211 and a Span ([9]; best-fit, K291A-2, run 2) of 78.94. The Top ([9]; best-fit, K291A-2, run 2) was 80.99.
